Data taken from ChEMBL document CHEMBL6078649, “Discovery of Chalcone Derivatives as Bifunctional Molecules with Anti-SARS-CoV-2 and Anti-inflammatory Activities” (J Nat Prod, 2024).

Key:
[1] = biological target: Replicase polyprotein 1ab (Severe acute respiratory syndrome coronavirus 2) (UniProt P0DTD1); test: Inhibition of SARS-CoV-2 3CLPro using DabcylKNSTLQSGLRK-Edans as substrate at 50 uM preincubated for 30 mins followed by substrate addition measured after 20 mins by FRET assay relative to control; conditions: time 50.0 min
[2] = Cytotoxicity against mouse RAW264.7 cells assessed as cell viability at 50 uM incubated for 24 hrs by CCK8 assay relative to control; type: toxicity, cell-based; conditions: read-out: Activity
[3] = biological target: Replicase polyprotein 1ab (Severe acute respiratory syndrome coronavirus 2, UniProt P0DTD1)
[4] = Cytotoxicity against mouse RAW264.7 cells assessed as cell viability at 10 uM incubated for 24 hrs by CCK8 assay relative to control; type: toxicity, cell-based; conditions: read-out: Activity
[5] = biological target: Replicase polyprotein 1ab (Severe acute respiratory syndrome coronavirus 2) (UniProt P0DTD1); test: Inhibition of SARS-CoV-2 3CLPro using DabcylKNSTLQSGLRK-Edans as substrate at 5 uM preincubated for 30 mins followed by substrate addition measured after 20 mins by FRET assay relative to control; conditions: time 50.0 min
RAW264.7 [6] = test: Anti-inflammatory activity against mouse RAW264.7 cells assessed as inhibition of LPS-induced NO production at 1 uM preincubated for 1 hr followed by LPS treatment measured after 24 hrs relative to control; type: functional; conditions: time 25 hrs
RAW264.7 [7] = test: Anti-inflammatory activity against mouse RAW264.7 cells assessed as inhibition of LPS-induced NO production at 10 uM preincubated for 1 hr followed by LPS treatment measured after 24 hrs relative to control; type: functional; conditions: time 25 hrs
[8] = Cytotoxicity against mouse RAW264.7 cells assessed as cell viability at 1 uM incubated for 24 hrs by CCK8 assay relative to control; type: toxicity, cell-based; conditions: read-out: Activity
[9] = Cytotoxicity against human Huh-7 cells harboring viral replicon/EGFP/Neo genes assessed as cell viability at 5 uM incubated for 24 hrs by Cell Titer Glo assay relative to control; type: toxicity, cell-based; conditions: read-out: Activity
[10] = Cytotoxicity against human Huh-7 cells harboring viral replicon/EGFP/Neo genes assessed as cell viability at 50 uM incubated for 24 hrs by Cell Titer Glo assay relative to control; type: toxicity, cell-based; conditions: read-out: Activity
[11] = Cytotoxicity against human Huh-7 cells harboring viral replicon/EGFP/Neo genes assessed as cell viability incubated for 24 hrs by Cell Titer Glo assay; type: toxicity, cell-based

Structure (SMILES)	inhibition [1]	viability at 24 h, 50 µM [2]	IC50 [3]	viability at 24 h, 10 µM [4]	inhibition [5]	inhibition at 1 µM (RAW264.7 [6])	inhibition at 10 µM (RAW264.7 [7])	viability at 24 h, 1 µM [8]	viability at 24 h, 5 µM [9]	viability at 24 h, 50 µM [10]	CC50 at 24 h [11]	EC50 [3]
O=C(O)/C=C/c1c(Cl)c(O)c(O)c(O)c1Cl	2.9%	82.1%	840 nM	92.4%	3.1%	27%	-14.6%	93.8%	–	–	–	–
O=C(/C=C/c1c(Cl)c(O)c(O)c(O)c1Cl)c1ccccc1F	3.1%	72.8%	237 nM	84.6%	2.3%	43.7%	87.3%	89%	–	–	–	–
O=C(/C=C/c1c(Cl)c(O)c(O)c(O)c1Cl)c1cccs1	-0.9%	112%	216 nM	82.8%	-1.8%	35.3%	76.9%	99.1%	–	–	–	–
O=C(/C=C/c1c(Cl)c(O)c(O)c(O)c1Cl)c1ccc(-c2ccc(F)cc2)cc1	0.6%	11.2%	1070 nM	33.1%	-0.6%	39.5%	89.4%	55.5%	86.5%	10.2%	–	–
O=C(/C=C/c1c(Cl)c(O)c(O)c(O)c1Cl)c1c(Cl)c(O)c(O)c(O)c1Cl	0.2%	82.4%	115 nM	37%	0%	22.9%	76.9%	51.2%	111%	99.3%	–	–
O=C(/C=C/c1c(Cl)c(O)c(O)c(O)c1Cl)c1ccccc1	-0.3%	96.9%	143 nM	66.8%	1%	14.6%	39.5%	95.5%	105%	64.2%	–	–
O=C(/C=C/c1c(Cl)c(O)c(O)c(O)c1Cl)c1ccc(Cl)cc1Cl	0.6%	21.8%	306 nM	77.2%	0.6%	31.2%	87.3%	81%	–	–	–	–
O=C(/C=C/c1c(Cl)c(O)c(O)c(O)c1Cl)c1ccc([N+](=O)[O-])cc1	-0.2%	77.4%	276 nM	110%	0.6%	2.1%	70.7%	115%	110%	74.7%	–	–
O=C(/C=C/c1c(Cl)c(O)c(O)c(O)c1Cl)c1ccc(Cl)cc1	0.4%	22.6%	630 nM	68.7%	0.4%	27%	81.1%	81.2%	–	–	–	–
CC(=O)Oc1c(Cl)c(/C=C/C(=O)c2ccc(F)cc2)c(Cl)c(OC(C)=O)c1OC(C)=O	1%	54.1%	247 nM	97.5%	1.1%	37.4%	85.2%	93.8%	111%	62%	> 50000 nM	–
O=C(/C=C/c1c(Cl)c(O)c(O)c(O)c1Cl)c1c(Cl)cc(Cl)cc1Cl	0.7%	13%	404 nM	58.5%	1.2%	33.3%	79%	78.7%	–	–	–	–
O=C(/C=C/c1c(Cl)c(O)c(O)c(O)c1Cl)c1ccc(F)cc1F	1.1%	65.8%	131 nM	91.8%	1.1%	35.3%	79%	108%	–	–	–	–
O=C(/C=C/c1c(Cl)c(O)c(O)c(O)c1Cl)c1ccc(Cl)c(Cl)c1	-0.3%	12.5%	415 nM	50%	-0.8%	58.2%	89.4%	79.8%	–	–	–	–
Oc1cc(CCCc2ccc(F)cc2)cc(O)c1O	2%	93.6%	2400 nM	108%	18%	-45.7%	-14.6%	94%	–	–	–	–
O=C(O)[C@H](O)Cc1ccc(O)c(O)c1	–	–	2150 nM	–	5.3%	–	–	–	–	–	–	> 50000 nM
O=C(/C=C/c1c(Cl)c(O)c(O)c(O)c1Cl)c1ccc(C(F)(F)F)cc1	1.5%	6.9%	442 nM	36.6%	2%	52%	70.7%	76.7%	101%	43.8%	–	–
O=C(/C=C/c1c(Cl)c(O)c(O)c(O)c1Cl)c1ccc(F)cc1Cl	1.6%	52.4%	310 nM	122%	1.1%	16.6%	87.3%	118%	104%	56.9%	–	–
O=C(CCc1cc(O)c(O)c(O)c1)c1ccc(F)cc1	6.3%	87.6%	1770 nM	103%	21.4%	20.8%	54.1%	117%	110%	92.7%	> 100000 nM	–
O=C(/C=C/c1cc(O)c(O)c(O)c1Cl)c1ccc(F)cc1	1.1%	104%	429 nM	110%	1.1%	-4.2%	72.8%	111%	106%	71.4%	–	–
O=C(/C=C/c1c(Cl)c(O)c(O)c(O)c1Cl)c1ccc(Br)cc1	-0.3%	12.4%	794 nM	75.7%	1%	5.2%	68.6%	101%	–	–	–	–
O=C(/C=C/c1c(Cl)c(O)c(O)c(O)c1Cl)c1ccco1	-0.7%	94.7%	95.5 nM	82.2%	-1.1%	45.7%	62.4%	82%	102%	70.7%	–	–
O=C(/C=C/c1c(Cl)c(O)c(O)c(O)c1Cl)c1cccc(-c2ccc(Cl)c(Cl)c2)c1	–	4.2%	> 5000 nM	29.4%	79.3%	16.6%	70.7%	69.1%	–	–	–	–
O=C(O)/C=C/c1c(Cl)c(O)c(O)c(O)c1Br	1.8%	92.3%	3460 nM	74%	30.7%	39.5%	-6.2%	93.6%	–	–	–	–
O=C(/C=C/c1c(Cl)c(O)c(O)c(O)c1Cl)c1c(Cl)cc(F)cc1Cl	1.1%	26.3%	403 nM	47.2%	1.3%	54.1%	83.2%	100%	–	–	–	–
O=C(O)CCc1c(Cl)c(O)c(O)c(O)c1Cl	1%	89.7%	> 5000 nM	80.8%	76.4%	20.8%	-6.2%	130%	–	–	–	–
O=C(/C=C/c1c(Cl)c(O)c(O)c(O)c1Cl)c1ccc(O)cc1	1.9%	114%	192 nM	95.6%	1.3%	16.6%	37.4%	122%	105%	87.9%	–	–
